SMILES strings stand for the structures.

The target in this assay is T1, YgbP (Escherichia coli, UniProt Q46893).
T1 construct: made in house; host or cells: E. coli XL1-Blue, plasmid pNCOygbP (vector pNCO113)
Put plainly: Screening of 4-diphosphocytidyl-2C-methyl-D-erythritol synthase by spectrophotometric method (coupled pyrophosphate/NADP+ assay, 340 nm). Particulars: 37° C. It counts as biochemical, E. coli. As for the experimental part:
Recombinant 4-diphosphocytidyl-2C-methyl-D-erythritol synthase is tested by a spectrophotometric assay at 340 nm, in which the inorganic pyrophosphate formed from 2-C-methyl-D-erythritol 4-phosphate and CTP is used in a cascade of downstream reactions leading to the reduction of NADP^+. Reactions mixtures contained 50 mM Tris hydrochloride pH 8.0, 200 μM 2C-methyl-D-erythritol 4-phosphate, 200 μM CTP, 5 mM MgCl2, 1 mM DTT, 1 μM glucose 1,6-biphosphate, 500 μM UDP-Glucose, 174 μM NADP^+, 0.125 U of UDP-glucose pyrophosphorylase, 0.16 U of phosphoglucomutase, and 1 U of glucose 6-phosphate deydrogenase, various concentrations of D-erythritol 4-phosphate respectively D-ribitol 5-phosphate as shown in Table 4 and 10 μl of enzyme in a total volume of 1 ml. One unit of enzyme activity is defined as the amount of enzyme catalyzing the conversion of 1 μmol of substrate per min at 37° C.

[1] abbreviates: test compound concentration 0.2 mM.
The mark [2] stands for this setting: test compound concentration 0.4 mM.
Setting [3] is: test compound concentration 0.8 mM.
Setting [4] is: test compound concentration 1.6 mM.
Where [5] appears, read: test compound concentration 3.2 mM.

T1 sequence (Q46893 2-236): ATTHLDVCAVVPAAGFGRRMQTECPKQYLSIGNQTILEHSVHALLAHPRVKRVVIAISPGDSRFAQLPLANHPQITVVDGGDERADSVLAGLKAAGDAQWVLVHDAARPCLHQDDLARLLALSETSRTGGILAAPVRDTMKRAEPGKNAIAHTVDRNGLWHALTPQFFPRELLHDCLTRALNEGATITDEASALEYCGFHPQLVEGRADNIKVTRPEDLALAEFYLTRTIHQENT

Consider `O=P(O)(O)OC[C@@H](O)[C@@H](O)CO` [D-erythritol 4-phosphate], for which the specific activity is 15.9 µmol/min/mg under setting [1]; 15.9 µmol/min/mg under setting [2]; 12.9 µmol/min/mg under setting [3]; 5.9 µmol/min/mg under setting [4]; 0 (0%) μmol min^−1 mg^−1 under setting [5]. In addition, the “specific activity (% of activity at 0 mM test compound)” value is listed as 92% under setting [1]; 92% under setting [2]; 75% under setting [3]; 34% under setting [4]; 0 (0%) under setting [5].
For the molecule `O=P(O)(O)OC[C@@H](O)[C@@H](O)[C@@H](O)CO` [D-ribitol 5-phosphate], under setting [1], the specific activity stood at 16.5 µmol/min/mg and the “specific activity (% of activity at 0 mM test compound)” value is 102%. In addition, under setting [4], the specific activity came to 16.9 µmol/min/mg and the “specific activity (% of activity at 0 mM test compound)” value was found to be 105%.

Values taken from patent US7534742B2, “Isoprenoid biosynthesis” (priority 1999, dated 2009).
